The experiment concerns the target LANA–DNA interaction (oligomerization-deficient LANA DBD aa 1008–1146 mutant / LBS1) (Human herpesvirus 8 (Kaposi's sarcoma-associated herpesvirus), UniProt Q76SB0). In words: Electrophoretic mobility shift assay (EMSA), LANA DBD mutant with LBS1 oligonucleotide. The class given is biochemical, Kaposi's sarcoma-associated herpesvirus (KSHV). As to the method:
In these assays, an oligomerization-deficient mutant of a LANA C-terminal protein fragment (aa 1008–1146) and an oligonucleotide representing LANA-binding site (LBS) 1 were used, which are convenient to use and handle for the described biophysical methods, while maintaining the essential DNA-binding interface.[25]
Equation y = A2 + (A1-A2)/(1 + (x/x0)^p) […]
1.4 Electrophoretic Mobility Shift Assay (EMSA)
The EMSA was carried out with slight modific ations as described previously 2 based on the assay in Hellert et al. (2013). 3 His-tagged oligomerization-deficient LANA DBD (aa1008-1146) mutant protein or LANA DBD (aa934-1162) wild type protein (200 nM final) was incubated with a 5´-Dy682-labeled double stranded DNA probe (IBA Lifesciences) (20 nM final) for 30 minutes at RT in the dark. The reaction buffer consisted of 30 mM Tris HCl pH 7.5, 50 mM KCl, 10 mM MgCl2, 1 mM DTT, 1 mM EDTA, 10% glycerol, 0.25% Tween20, 0.5 mg/mL BSA and 0.05 mg/mL poly(dI-dC). […]
dark. 10 µL of the reaction was run on a pre -run native 5% acrylamide gel for 45 minutes at 100V with tris-borate-EDTA buffer. Images of the gels were acquired and analysed with the Odyssey (Licor) using the Image Studio software.
Fig S2: Gels of EMSA experiments at 250 μM for all compounds (A) and dose-dependent curves for compound 20 using LANA DBD mutant (B) and LANA wildtype (C) as well as LBS1. Values are means […]
Gleichung y = A2 + (A1-A2)/(1 + (x/x0)^p) […]
For orientation: In EMSA bound probe runs differently from free probe, usually more slowly.

Each structure is given as a SMILES string.

For the molecule `COc1ccc(-c2cc(C)c(-n3cc(-c4ccc(C(=O)O)cc4)nn3)cn2)c(Cl)c1` [Compound 20], the “Inhibition (EMSA, LBS1) @250 μM” value (compound at 250 μM, LBS1 oligonucleotide, LANA aa 1008–1146 mutant) is recorded as 93%. Also, the IC50 (read-out: x0 of logistic fit, dose-dependent EMSA curve (converted), Fig S2, LBS1, curve with A2 95.7, assigned to LANA DBD mutant) is 43.7 µM.

For the origin of these results see article PMC10424179, “Disrupting Kaposi’s Sarcoma-Associated Herpesvirus (KSHV) Latent Replication with a Small Molecule Inhibitor” (Journal of Medicinal Chemistry, 2023).
